Experimental data taken from US10238738B2, “Methods of modulating immune system responses” (priority 2014, dated 2019).

What was measured:
Format in all cases: cell-based, human
[1] = tested on: NF-κB response to HBP; experiment: HBP internalization assay: NF-κB luciferase in 293T cells pre-treated with inhibitors; conditions: 80 μM Dynasore or 10 μM cytochalasin D 1 hr prior to stimulation, FIG. 3b
Protocol: (§1) 293T were maintained in DMEM supplemented with 10% FBS, 1% glutamax, and 1% penicillin streptomycin. Jurkat 1G5 cells contain a stably-integrated LTR-luciferase reporter gene (Aguilar-Cordova et al., 1994), and were maintained in RPMI supplemented with 10% FBS and 1% glutamax. THP-1 cells were maintained in RPMI supplemented with 10% FBS and 1% glutamax and differentiated to macrophages with 50 ng/ml PMA for 48 hr, followed by a 48 hr rest period prior to stimulation. To measure LTR-driven luciferase, 1G5 cells were lysed and luminescence determined using the Luciferase Assay kit (Promega) according to manufacturer's instructions. Results are expressed as fold change compared to untreated. 293T cells were transfected in 96 well plates with 90 ng ELAM firefly luciferase reporter plasmid (Chow et al., 1999) and 10 ng pRL-TK Renilla plasmid using TransiT LTI (Mirus). 18 hours later cells were treated for 6 hours and luciferase activity determined using the Dual-Glo Luciferase Assay System (Promega). Results are expressed as fold increase relative to transfected, mock treated cells following normalization to Renilla luciferase. […]

[2] = tested on: THP-1 macrophages; experiment: Infection of THP-1 macrophages with serum-opsonized E. coli, IL-6 production; conditions: 10 μg/ml cytochalasin D for 30 min; FIG. 6a
Protocol: Neisseria strains were grown overnight on GC agar supplemented with IsovitaleX enrichment (BD Biosciences). E. coli and S. typhimurium were grown overnight on LB agar, S. pneumoniae was grown on Columbia blood agar containing 5% sheep blood, and H. influenzae, B. multivorans, L. monocytogenes, and S. aureus were grown on brain heart infusion (BHI) agar (BD Biosciences). Where culture supernatant was desired, overnight cultures were scraped into PBS, re-suspended in RPMI 1% Isovitalex at an OD600=0.2, grown for 6 hours and the spent medium filtered through a 0.22 μm filter. For heat-killed bacteria, overnight cultures were scraped into PBS and 1 OD600 unit was re-suspended in 100 μl PBS and heated to 65° C. for 1 hr, with the exception of B. multivorans which was heated to 85° C. Cell pellets were washed, re-suspended in 100 μl PBS, and 2 μl/well used as treatment. To generate lysates, cultures were treated as above and boiled for 15 minutes. […]
Relative expression was calculated using the 2^−ΔΔCT method following normalization of target gene abundance to GAPDH. Quantitative measurements of cytokines were performed using ELISA kits form R&D Systems (KC, IL-23, IFN-β) or BD Biosciences (IL-1β, IL-8, IL-6, IL-12p70, TNF-α). Nuclear extracts were prepared from Jurkat T cells and NF-κB subunit binding was determined using the TransAM® Transcription Factor ELISA (Active Motif). […]

[3] = tested on: NF-κB; experiment: NF-κB luciferase reporter assay in 293T cells
Protocol: as §1, with “luciferase. Digitonin permeabilization assays were done as described previously (Girardin et al., 2003) with the following modifications: 1G5 cells were stimulated with purified HBP supernatants, or 10 μg/ml flagellin (Invivogen) for 20 minutes at 4° C. in the absence or presence of 2 μg/ml digitonin (Sigma).” for “luciferase.”
293T were maintained in DMEM supplemented with 10% FBS, 1% glutamax, and 1% penicillin streptomycin. […] To measure LTR-driven luciferase, 1G5 cells were lysed and luminescence determined using the Luciferase Assay kit (Promega) according to manufacturers instructions. Results are expressed as fold change compared to untreated. […] 18 hours later cells were treated for 6 hours and luciferase activity determined using the Dual-Glo Luciferase Assay System (Promega). Results are expressed as fold increase relative to transfected, mock treated cells following normalization to Renilla luciferase.

[4] = tested on: HIV LTR-luciferase in Jurkat 1G5 cells; experiment: LTR-driven luciferase in Jurkat 1G5 cells with reversible digitonin permeabilization; conditions: FIG. 3a
Protocol: as §1

Compound: O=C(N/N=C/c1ccc(O)c(O)c1)c1cc2ccccc2cc1O [Dynasore]
- Effect of inhibitor on NF-κB response to HBP [1]: attenuated the NF-κB response to HBP

Compound: C=C1[C@@H](C)[C@H]2[C@H](Cc3ccccc3)NC(=O)[C@]23[C@H](OC(C)=O)/C=C/[C@@](C)(O)C(=O)[C@@H](C)C/C=C/[C@H]3[C@@H]1O [cytochalasin D]
- Effect of inhibitor on NF-κB response to HBP [1]: not
- Effect of pre-treatment on the higher IL-6 production induced by HBP-synthesizing E. coli [2]: abrogated the effect

Compound: C[C@H](N)C(=O)N[C@H](CCC(=O)N[C@@H](CCC[C@@H](N)C(=O)O)C(=O)O)C(=O)O [m-TriDAP, reference compound]
- NF-κB response of 293T cells to known Gram-negative PAMPs [3]: unresponsive

Compound: flagellin
- Luciferase activity after delivery into the cytosol [4]: remained constant
